Molecules are shown by their SMILES.

The test deals with T1, ΔF508-CFTR (Homo sapiens, UniProt P13569, DEL508-508).
T1 construct: Primary lung epithelial cells homozygous for the Cystic Fibrosis-causing ΔF508 mutation were differentiated; endogenous in cells; host or cells: primary lung (bronchial) epithelial cells (hBE) homozygous for ΔF508, differentiated at an air-liquid interface
T1 sequence (P13569 with tags, fused parts or gaps DEL508-508): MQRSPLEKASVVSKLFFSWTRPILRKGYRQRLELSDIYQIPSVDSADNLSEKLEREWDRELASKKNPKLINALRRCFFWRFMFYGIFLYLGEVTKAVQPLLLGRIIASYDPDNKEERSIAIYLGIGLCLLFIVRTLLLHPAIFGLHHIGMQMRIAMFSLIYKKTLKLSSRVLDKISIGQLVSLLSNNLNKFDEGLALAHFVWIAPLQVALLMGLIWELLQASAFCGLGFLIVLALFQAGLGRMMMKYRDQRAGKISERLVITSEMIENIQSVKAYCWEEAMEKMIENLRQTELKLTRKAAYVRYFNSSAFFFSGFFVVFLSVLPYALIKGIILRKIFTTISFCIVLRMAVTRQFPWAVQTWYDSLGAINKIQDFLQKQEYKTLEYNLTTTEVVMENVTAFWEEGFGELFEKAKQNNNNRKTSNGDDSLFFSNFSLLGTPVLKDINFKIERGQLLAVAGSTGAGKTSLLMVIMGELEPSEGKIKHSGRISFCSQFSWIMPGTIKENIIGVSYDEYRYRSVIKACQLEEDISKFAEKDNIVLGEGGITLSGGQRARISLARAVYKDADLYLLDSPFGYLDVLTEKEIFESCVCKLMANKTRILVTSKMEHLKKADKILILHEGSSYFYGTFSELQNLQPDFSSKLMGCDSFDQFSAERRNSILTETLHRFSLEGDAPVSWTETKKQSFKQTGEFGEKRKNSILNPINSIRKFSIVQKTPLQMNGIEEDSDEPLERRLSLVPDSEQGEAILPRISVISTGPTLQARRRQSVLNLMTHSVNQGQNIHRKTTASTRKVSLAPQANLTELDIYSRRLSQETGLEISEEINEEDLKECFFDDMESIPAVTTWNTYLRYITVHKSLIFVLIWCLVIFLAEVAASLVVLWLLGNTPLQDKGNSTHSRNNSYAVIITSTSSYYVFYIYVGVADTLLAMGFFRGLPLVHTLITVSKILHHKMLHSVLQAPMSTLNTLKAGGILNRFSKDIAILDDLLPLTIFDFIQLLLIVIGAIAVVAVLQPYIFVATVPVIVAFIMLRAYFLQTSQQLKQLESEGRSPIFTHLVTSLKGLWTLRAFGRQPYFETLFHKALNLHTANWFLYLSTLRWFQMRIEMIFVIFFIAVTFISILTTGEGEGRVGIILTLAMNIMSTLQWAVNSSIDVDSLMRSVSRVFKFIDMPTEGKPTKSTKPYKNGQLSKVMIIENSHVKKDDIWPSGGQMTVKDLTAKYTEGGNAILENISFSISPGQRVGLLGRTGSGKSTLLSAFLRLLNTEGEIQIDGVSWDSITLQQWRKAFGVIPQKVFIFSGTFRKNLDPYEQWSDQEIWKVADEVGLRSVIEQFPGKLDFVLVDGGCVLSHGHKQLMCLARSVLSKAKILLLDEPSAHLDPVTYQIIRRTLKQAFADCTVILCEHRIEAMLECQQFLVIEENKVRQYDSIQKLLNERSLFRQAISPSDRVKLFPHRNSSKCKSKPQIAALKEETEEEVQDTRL
Nature of the test: hBE equivalent current (Ieq) assay. Format: cell-based. The settings on record: AUC of equivalent chloride current, % of CFTR amplifier (Compound A)+VX-809 (3 uM); compound at 10 uM and Compound A at 3 uM; primary lung epithelial cells homozygous ΔF508, 24 hours treatment. As to the method:
ii. hBE Equivalent Current (Ieq) Assay
Primary lung epithelial cells homozygous for the Cystic Fibrosis-causing ΔF508 mutation were differentiated for a minimum of 4 weeks in an air-liquid interface on Costar 24 well HTS filter plates prior to the equivalent current (Ieq) measurements. Cells were apically mucus-washed for 30 minutes 24 h prior to treatment with compounds. The basolateral media was removed and replaced with media containing the compound of interest diluted to its final concentration from DMSO stocks. Treated cells were incubated at 37° C. and 5% CO2 for 24 hours. At the end of the treatment period, the media was changed to the Ieq experimental solution for 2 hours before the experiment and plates are maintained in a CO2-free incubator during this period. The plates containing the cells were then placed in pre-warmed heating blocks at 36° C.±0.5 for 15 minutes before measurements are taken. The transepithelial voltage (VT) and conductance (Gr) were measured using a custom 24 channel current clamp (TECC-24) with 24 well electrode manifold. The Ieq assay measurements were made following additions with standardized time periods: • 1. The baseline VT and Gr values were measured for approximately 20 minutes. • 2. Benzamil was added to block ENaC for 15 minutes. • 3. Forskolin plus VX-770 were added to maximally activate ΔF508-CFTR for 27 minutes. • 4. Bumetanide was added to inhibit the NaK2Cl cotransporter and shut-off secretion of chloride.
The activity data captured was the area under the curve (AUC) for the traces of the equivalent chloride current. The AUC was collected from the time of the forskolin/VX-770 addition until the inhibition by bumetanide addition. Correction in response to compound treatment was scored as the increase in the AUC for compound-treated samples over that of vehicle-treated samples.
(+ indicates activity <100% of a CFTR amplifier (Compound A)+VX-809 (3 uM) with compound at 10 uM and Compound A at 3 uM; ++ indicates activity ≥100% and <200% of CFTR amplifier+VX-809 (3 uM) with compound at 10 uM and Compound A at 3 uM; +++ indicates activity >200% of CFTR amplifier+VX-809 (3 uM) with compound at 10 uM and Compound A at 3 uM.
For `Cc1c(-c2cc(C(=O)NS(C)(=O)=O)c3c(O[C@H](C)c4ccccc4)ccc(C)c3n2)oc2ccccc12` [Compound 2], the Activity result is “+++ (activity >200% of CFTR amplifier+VX-809 (3 uM) with compound at 10 uM and Compound A at 3 uM)”. With `Cc1c(-c2cc(C(=O)NS(=O)(=O)C3CC3)c3c(O[C@H](C)c4ccccc4)ccc(C)c3n2)oc2ccccc12` [Compound 4], the Activity result was “++ (activity ≥100% and <200% of CFTR amplifier+VX-809 (3 uM) with compound at 10 uM and Compound A at 3 uM)”.

Turning to `Cc1c(-c2cc(C(=O)NS(=O)(=O)N3CC[C@H](N)C3)c3c(O[C@H](C)c4ccccc4)ccc(C)c3n2)sc2ccccc12` [Compound 15], the Activity entry was “++ (activity ≥100% and <200% of CFTR amplifier+VX-809 (3 uM) with compound at 10 uM and Compound A at 3 uM)”. To `Cc1c(-c2cc(C(=O)NS(=O)(=O)N3CCOCC3)c3c(O[C@H](C)c4ccccc4)ccc(C)c3n2)oc2ccccc12` [Compound 8] belongs “+ (activity <100% of a CFTR amplifier (Compound A)+VX-809 (3 uM) with compound at 10 uM and Compound A at 3 uM)”. To `Cc1c(-c2cc(C(=O)NS(=O)(=O)c3cnc(N)s3)c3c(O[C@H](C)c4ccccc4)ccc(C)c3n2)oc2ccccc12` [Compound 18] belongs “+ (activity <100% of a CFTR amplifier (Compound A)+VX-809 (3 uM) with compound at 10 uM and Compound A at 3 uM)”. In the case of `Cc1c(-c2cc(C(=O)NS(=O)(=O)N3CC[C@H](N)C3)c3c(O[C@H](C)c4ccccc4)ccc(C)c3n2)oc2ccccc12` [Compound 16], the Activity entry was “+++ (activity >200% of CFTR amplifier+VX-809 (3 uM) with compound at 10 uM and Compound A at 3 uM)”. For `Cc1c(-c2cc(C(=O)NS(C)(=O)=O)c3c(O[C@H](C)c4ccccc4)ccc(C)c3n2)sc2ccccc12` [Compound 1] the value was “+++ (activity >200% of CFTR amplifier+VX-809 (3 uM) with compound at 10 uM and Compound A at 3 uM)”; for `Cc1c(-c2cc(C(=O)NS(=O)(=O)N3CCOCC3)c3c(O[C@H](C)c4ccccc4)ccc(C)c3n2)sc2ccccc12` [Compound 7], “+++ (activity >200% of CFTR amplifier+VX-809 (3 uM) with compound at 10 uM and Compound A at 3 uM)”; for `Cc1c(-c2cc(C(=O)NS(=O)(=O)c3cccc(N)n3)c3c(O[C@H](C)c4ccccc4)ccc(C)c3n2)oc2ccccc12` [Compound 12], “++ (activity ≥100% and <200% of CFTR amplifier+VX-809 (3 uM) with compound at 10 uM and Compound A at 3 uM)”. To `Cc1c(-c2cc(C(=O)NS(=O)(=O)c3cccc(N)n3)c3c(O[C@H](C)c4ccccc4)ccc(C)c3n2)sc2ccccc12` [Compound 11] belongs “++ (activity ≥100% and <200% of CFTR amplifier+VX-809 (3 uM) with compound at 10 uM and Compound A at 3 uM)”. `Cc1c(-c2cc(C(=O)NS(=O)(=O)C3CC3)c3c(O[C@H](C)c4ccccc4)ccc(C)c3n2)sc2ccccc12` [Compound 3]: the Activity result is “++ (activity ≥100% and <200% of CFTR amplifier+VX-809 (3 uM) with compound at 10 uM and Compound A at 3 uM)”.

Regarding `Cc1c(-c2cc(C(=O)NS(=O)(=O)c3cccc(N)c3)c3c(O[C@H](C)c4ccccc4)ccc(C)c3n2)sc2ccccc12` [Compound 13], the Activity result is “+++ (activity >200% of CFTR amplifier+VX-809 (3 uM) with compound at 10 uM and Compound A at 3 uM)”. To `Cc1c(-c2cc(C(=O)NS(=O)(=O)c3ccccc3)c3c(O[C@H](C)c4ccccc4)ccc(C)c3n2)sc2ccccc12` [Compound 9] belongs “++ (activity ≥100% and <200% of CFTR amplifier+VX-809 (3 uM) with compound at 10 uM and Compound A at 3 uM)”; to `Cc1c(-c2cc(C(=O)NS(=O)(=O)c3cccc(N)c3)c3c(O[C@H](C)c4ccccc4)ccc(C)c3n2)oc2ccccc12` [Compound 14], “+++ (activity >200% of CFTR amplifier+VX-809 (3 uM) with compound at 10 uM and Compound A at 3 uM)”; to `Cc1c(-c2cc(C(=O)NS(=O)(=O)c3cnc(N)s3)c3c(O[C@H](C)c4ccccc4)ccc(C)c3n2)sc2ccccc12` [Compound 17], “+++ (activity >200% of CFTR amplifier+VX-809 (3 uM) with compound at 10 uM and Compound A at 3 uM)”. For `Cc1c(-c2cc(C(=O)NS(=O)(=O)c3ccccc3)c3c(O[C@H](C)c4ccccc4)ccc(C)c3n2)oc2ccccc12` [Compound 10] the value was “++ (activity ≥100% and <200% of CFTR amplifier+VX-809 (3 uM) with compound at 10 uM and Compound A at 3 uM)”.
